Measured values taken from patent publication US11407819B2, “Compositions and use of a fibrinogen binding motif present in EFB and COA for therapeutics and vaccines against Staphylococcus aureus” (priority 2013, dated 2022).
pKd: −log10 of the molar value.

Molecular target: Fibrinogen-D fragment
Assay: Isothermal titration calorimetry (VP-ITC) of Coa peptides with Fg-D fragment
Design: species or system human
Conditions: one-binding site model, 10 μM Fg-D, read-out: dissociation constant (KD) to Fg-D
Description: Binding isotherms for the interaction of Fg-D with Coa peptide sCoa-RI (FIG. 14A), sCoa-R13 (FIG. 14B) and sCoa-RV (FIG. 14C) were generated by titrating the peptides (˜200 μM) into an ITC cell containing 10 μM Fg-D. The top panels show heat difference upon injection of coa peptides, and the lower panels show integrated heat of injections. The data were fitted to a one-binding site model (bottom panels), and binding affinities are expressed as dissociation constants (KD) or the reciprocal of the association constants determined by Microcal Origin software. N represents the binding ratio. To generate more quantitative binding data for the Coa peptide Fg interaction isothermal titration calorimetry and titrated the Coa peptides into a solution containing a fixed concentration of Fg-D fragments was used.
Isothermal titration calorimetry—The interaction between Coa peptides and the soluble, isolated Fibrinogen-D fragment was further characterized by isothermal titration calorimetry (ITC) using a VP-ITC microcalorimeter. The Fibrinogen-D fragment used in these studies was generated by digesting full length Fibrinogen with plasmin for 4 h and fractionating the digestion products by gel filtration chromatography. The ITC cell contained 10 μM Fibrinogen-D fragments and the syringe contained 150-200 μM Coa peptides in TBS (25 mM Tris, 3.0 mM KCl and 140 mM NaCl, pH 7.4). […]

Fibrinogen-D fragment, sequence (P02671 130-216 limits assumed): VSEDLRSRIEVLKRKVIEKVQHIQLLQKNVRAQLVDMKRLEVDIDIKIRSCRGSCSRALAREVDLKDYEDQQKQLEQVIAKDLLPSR
Fibrinogen-D fragment, sequence (P02675 164-491 limits assumed, further chain): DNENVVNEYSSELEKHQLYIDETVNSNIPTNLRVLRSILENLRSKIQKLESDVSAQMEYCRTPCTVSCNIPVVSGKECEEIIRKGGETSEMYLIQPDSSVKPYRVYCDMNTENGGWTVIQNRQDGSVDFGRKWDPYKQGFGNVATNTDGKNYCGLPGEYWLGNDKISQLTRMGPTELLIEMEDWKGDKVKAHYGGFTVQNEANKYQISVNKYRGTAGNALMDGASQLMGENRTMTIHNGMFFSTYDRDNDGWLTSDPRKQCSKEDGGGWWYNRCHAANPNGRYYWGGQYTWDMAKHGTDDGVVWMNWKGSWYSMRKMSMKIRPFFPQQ
Fibrinogen-D fragment, sequence (P02679 114-432 limits assumed, further chain): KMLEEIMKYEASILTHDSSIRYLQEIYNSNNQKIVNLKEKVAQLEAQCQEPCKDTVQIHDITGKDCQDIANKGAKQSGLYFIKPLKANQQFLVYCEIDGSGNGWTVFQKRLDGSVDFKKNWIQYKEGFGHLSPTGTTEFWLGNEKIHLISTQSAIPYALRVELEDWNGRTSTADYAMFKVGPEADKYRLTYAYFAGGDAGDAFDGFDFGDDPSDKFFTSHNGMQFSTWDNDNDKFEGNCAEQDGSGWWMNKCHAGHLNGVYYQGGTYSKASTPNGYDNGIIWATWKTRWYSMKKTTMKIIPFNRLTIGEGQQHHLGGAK

“sCoa-RI: synthetic peptide, first 27 residues of repeat region, Coa 506-532 (ETNAYNVTTHANGQVSYGARPTYKKPS)” was tested, and the pKd was 7.06.
